“And” between values parts separate entries of the source, which are not always exact repeats. Equal entries are not always repeated.
Experiments:
[1] = test system: skin and soft tissue infections (SSTI); experiment: Phase II SSTI trial: clinical response; assay type: in vivo, human
Procedure: This randomized, controlled study evaluated the safety and efficacy of two dose regimens of dalbavancin.
There were 62 patients randomized into the study; all received at least one dose of study medication. Four study populations were evaluated for safety and efficacy and were defined as follows: The intent-to-treat (ITT) population included all patients who received at least one dose of study drug (all randomized study subjects).
The effectiveness of the three treatment regimens was determined by assessing the patients' clinical response and the documented or presumed microbiological responses. The primary efficacy endpoint was clinical response at the follow-up visit for the clinically evaluable population. Clinical response, for both EOT and FU visits, was categorized as success (cure or improvement) or failure (including indeterminate results). Patients classified as successes must not have received additional systemic antibacterial treatment for their infection. Failure was defined as persistence of one or more local or systemic signs and symptoms of SSTI such that treatment with new or additional systemic antibacterial agents was required for the SSTI.

[2] = Pharmacokinetics and renal excretion in healthy subjects, single 1000 mg IV; assay type: in vivo, human; settings: for t1/2: healthy subjects, single 1000 mg IV
Procedure: Blood samples were drawn into heparinized tubes and centrifuged. Plasma was separated and stored frozen at −20° C. until time of assay. Plasma and urine samples were assayed for dalbavancin using validated LC/MS/MS methods. […] The peak concentration (Cmax) values were obtained directly from the observed data. The area under the plasma concentration-time curve (AUC) was calculated using the linear trapezoidal rule. Clearance (CL) was computed as dose/AUC. The elimination half life (t1/2) was estimated by linear regression of the log-linear portion of the log concentration versus time curve. Estimates of the volume of distribution (VZ) was calculated using the regression parameters, while the volume of distribution at steady state (VSS) was calculated from the area under the first moment curve (AUMC) multiplied by the dose and divided by AUC. The cumulative amount of dalbavancin excreted in urine was determined as the integrand of the urine excretion rate (AURC). CLR, or renal clearance, was calculated as the ratio: CLR=AURC/AUC.

P vulgaris = experiment: MIC, microbiological activity (Table 3); assay type: cell-based; settings: L 79 P vulgaris; read-out: MIC
B subtilis = experiment: MIC, microbiological activity (Table 3); assay type: cell-based; settings: L 102 B subtilis ATCC; read-out: MIC

CN[C@H]1C(=O)N[C@@H]2Cc3ccc(cc3)Oc3cc4cc(c3O[C@@H]3O[C@H](C(=O)O)[C@@H](O)[C@H](O)[C@H]3NC(=O)CCCCCCCCC(C)C)Oc3ccc(cc3Cl)[C@@H](O)[C@@H]3NC(=O)[C@H](NC(=O)[C@@H]4NC(=O)[C@@H](NC2=O)c2cc(cc(O)c2Cl)Oc2cc1ccc2O)c1ccc(O)c(c1)-c1c(O[C@H]2O[C@H](CO)[C@@H](O)[C@H](O)[C@@H]2O)cc(O)cc1[C@@H](C(=O)NCCCN(C)C)NC3=O [Dalbavancin]
Clinical Success Rate ([1]; Clinically evaluable at EOT, Single-dose (1100 mg)): 13/16 (61.5) % | Clinical Success Rate ([1]; Clinically evaluable at EOT, Two-dose (1000/500 mg)): 16/17 (94.1) % | Clinical Success Rate ([1]; Clinically evaluable at FU, Single-dose (1100 mg)): 8/13 (61.5) % | Clinical Success Rate ([1]; Clinically evaluable at FU, Two-dose (1000/500 mg)): 16/17 (94.1) % | Clinical Success Rate ([1]; ITT at EOT, Single-dose (1100 mg)): 15/20 (75.0) % | Clinical Success Rate ([1]; ITT at EOT, Two-dose (1000/500 mg)): 19/21 (90.5) % | Clinical Success Rate ([1]; ITT at FU, Single-dose (1100 mg)): 12/20 (60.0) % | Clinical Success Rate ([1]; ITT at FU, Two-dose (1000/500 mg)): 19/21 (90.5) % | Clinical Success Rate ([1]; MITT at EOT, Single-dose (1100 mg)): 10/14 (71.4) % | Clinical Success Rate ([1]; MITT at EOT, Two-dose (1000/500 mg)): 12/13 (92.3) % | Clinical Success Rate ([1]; MITT at FU, Single-dose (1100 mg)): 7/14 (50.0) % | Clinical Success Rate ([1]; MITT at FU, Two-dose (1000/500 mg)): 12/13 (92.3) % | Clinical Success Rate ([1]; MITT population with MRSA, FU assessment, single-dose): 50% | Clinical Success Rate ([1]; MITT population with MRSA, FU assessment, two-dose): 80% | Clinical Success Rate ([1]; Microbiologically evaluable at EOT, Single-dose (1100 mg)): 10/13 (76.9) % | Clinical Success Rate ([1]; Microbiologically evaluable at EOT, Two-dose (1000/500 mg)): 10/11 (90.9) % | Clinical Success Rate ([1]; Microbiologically evaluable at FU, Single-dose (1100 mg)): 6/11 (54.5) % | Clinical Success Rate ([1]; Microbiologically evaluable at FU, Two-dose (1000/500 mg)): 10/11 (90.9) % | Clinical Success Rate ([1]; clinically-evaluable population, FU assessment, single-dose: 1100 mg IV day 1): 61.5% | Clinical Success Rate ([1]; clinically-evaluable population, FU assessment, two-dose: 1 g IV day 1 + 500 mg IV day 8): 94.1% and 94% | t1/2 ([2]; Max): 11.8 days | t1/2 ([2]; Min): 9.46 days | peak concentration ([2]; both, human, in vivo): ~165 µM | MIC (P vulgaris): > 32 µg/mL | MIC (B subtilis): < 0.03 µg/mL
